Laboratory results from the NIST ThermoML archive (doi:10.1021/acs.jced.7b00717).

What was measured:
[1] = xn = mol fraction of the nth substance listed; conditions: Liquid, dynamic ligfht scattering
[2] = refractive index (other wavelength) (dimensionless); xn = mol fraction of the nth substance listed; conditions: Liquid, Wavelength=532 nm

OCC(O)CO [glycerol] + O
[1]
Conditions	binary diffusion coefficient [m2/s]
322.99 K, x1 = 0.5	2.54e-10
323.07 K, x1 = 0.699	1.4e-10
323.15 K, x1 = 0.299	5.6e-10
347.98 K, x1 = 0.5	5.69e-10
348.19 K, x1 = 0.299	1.04e-09
351.63 K, x1 = 0.699	3.69e-10
372.92 K, x1 = 0.699	6.93e-10
373.17 K, x1 = 0.5	1.04e-09
373.3 K, x1 = 0.299	1.73e-09
397.7 K, x1 = 0.699	1.45e-09
398.05 K, x1 = 0.299	2.84e-09
398.12 K, x1 = 0.5	1.9e-09
422.61 K, x1 = 0.299	4.12e-09
423.15 K, x1 = 0.5	2.87e-09
448.21 K, x1 = 0.5	4.8e-09

[2]
Conditions	refractive index
295.65 K, Standard Abbe refractometry, x1 = 0.299	1.422
296.15 K, beam displacement method, x1 = 0.699	1.461
314.15 K, Standard Abbe refractometry, x1 = 0.299	1.42
322.99 K, beam displacement method, x1 = 0.5	1.436
323.15 K, beam displacement method, x1 = 0.299	1.417
331.65 K, Standard Abbe refractometry, x1 = 0.299	1.415
347.96 K, beam displacement method, x1 = 0.5	1.43
348.15 K, beam displacement method, x1 = 0.299	1.411
348.45 K, beam displacement method, x1 = 0.699	1.445
373.05 K, beam displacement method, x1 = 0.699	1.438
373.16 K, beam displacement method, x1 = 0.299	1.403
373.23 K, beam displacement method, x1 = 0.5	1.423
398.11 K, beam displacement method, x1 = 0.5	1.417
398.15 K, beam displacement method, x1 = 0.299	1.396
398.25 K, beam displacement method, x1 = 0.699	1.431
421.85 K, beam displacement method, x1 = 0.699	1.424
423.15 K, beam displacement method, x1 = 0.5	1.409
